The test system of data set [1] is vitamin D-binding protein. Put plainly: Competitive protein binding analysis (CBPA) with 3H-25-OH-vitamin D as tracer, cross reactions. Further details: species or system goat. As to the method:
In each case 100 μl vitamin D binding protein, isolated from goat serum (1:15000 in assay buffer with 3% (w/v) PEG 6000) together with 10 μl standard, control or sample (10 μl result from the sample preparation) was placed in the wells. The microtitration plate was incubated for 24 hours at 4EC in the dark and subject to shaking. Then, the solution was removed from the wells and the wells washed five times in each case with 200 μl washing buffer.
Insofar as no other indication is given, all reagents, buffers and materials were the same as in above-mentioned Example 3. There served as competitive binding partner (tracer) tritium-labelled 25-OH-vitamin D3. Differing from Example 3, the measurement samples were purified by means of extraction (into individual values). For this purpose, in each case 50 μl sample [non-specific assay buffer NSB, standard, control, patients sample (plasma, serum or urine)] was introduced into a 1.5 ml disposable reaction container, 200 μl acetonitrile added, mixed, the container walls centrifuged free, and the mixture incubated for 20 to 30 minutes at 4EC. The mixture was centrifuged at 1700×g for 10 minutes. The determinations were effected with the results using duplicate values.
For this purpose 25 μl clear result was transferred to a glass test tube (or into a special-RIA-container from Sarstedt, Darmstadt) and 10 μl tracer (3H-25-OH-D), 300 μl assay buffer and 100 μl vitamin D-binding protein (not in NSB) added. The test tube contents were mixed, incubated for one hour at 4EC and, to remove non-bound radioactive tracer, 100 μl activated charcoal suspension (activated charcoal containing phosphate buffer with 0.1% NaN3) was added. The test tube content was mixed, incubated for 3 to 5 minutes at 4EC, and the active charcoal pelletized by means of centrifuging for 10 minutes at 1700×g. Then, in each case 400 μl of the result was transferred to a counter container (7 ml) and, after the addition of 2 ml scintillator liquid such as Aquasafe™ 300 or HiSafe™ III, the radioactivity present in the result was counted (2 minutes in a beta-counter). […]

For data set [2], the system named is vitamin D binding protein from goat serum. Briefly: RIA for determining competition with 3H-25-OH-vitamin D3 and displacement efficiency. Also on record: unit not given here. As to conditions: tracer 3H-25-OH-vitamin D3. As to the method:
Displacement efficiencies on vitamin D binding protein from goat serum and competition with ^3H-250H-vitamin D3 were measured for three vitamin D derivates using a RIA. The tested derivatives were 25-OH-vitamin D, biotinylated 25-OH-vitamin D3 of example 1 and 25-OH-D3 dimer of example 10.
The dimer having a short spacer has a lower displacement efficiecy than the corresponding biotinylated compound with the longer spacer group. […] For comparision, compound C in WO 97/24127 (Holick et al.) could only displace the tritiated compound from human vitamin D binding protein when it was present in eleven-fold excess. […] A longer spacer group in the vitamin D dimer leads to a higher affinity to DBP. An eleven fold lower affinity on the other hand is typical for vitamin D derivatives lacking the 25 hydroxy group which is essential for high affinity to vitamin D binding protein DBP.

A short description of data set [3]: Stability of the 25-OH-D3-biotin compound in protonic solvent (NMR, HPLC). The class given is physicochemical. The conditions noted are these: protonic solvent pH 4-5; for HPLC analysis, compound intact: 200 days. The method, then: In each case 20 mg purified 25-OH-D3-biotin compound (25-OH-vitamin D3-3β-3′[6-N-(biotinyl)-hexamido]amidopropylether) from Example 1 was placed in an NMR test tube to which 1 ml solvent was added. The solvent was a mixture of deuterium chloroform:deuterium acetonitrile: D2O in the ratio 3:2:1 with a pH-value between 4 and 5. The samples were stored for 200 days under the conditions set out below and the NMR spectra were investigated at regular intervals. • Sample 1: light excluded at −20EC; • Sample 2 light excluded at +4−6EC; • Sample 3: light excluded at room temperature; • Sample 4: subject to strong light (on a window ledge) at room temperature.
An HPLC analysis confirmed that samples 1 and 2 were intact even after 200 days in protonic solvent.

Where [4] appears, read: 250 nmol/l added to serum treated with activated charcoal.

On to `C=C1/C(=C\C=C2/CCC[C@]3(C)[C@@H]([C@H](C)CCCC(C)(C)O)CC[C@@H]23)C[C@@H](O)C[C@@H]1O` [1,25-(OH)2-vitamin D3], for which the cross-reaction entry in data set [1] (setting [4]) is given as “no cross-reactivity”.
In data set [1] (setting [4]), `C=C1CCC(O)C/C1=C\C=C1\CCCC2(C)C1CCC2C(C)CCC(O)C(C)(C)O` (centres unmarked) [24,25-(OH)2-vitamin D3] yielded a cross-reaction of 100%.
As to `C=C1CC[C@H](O)C/C1=C/C=C1\CCC[C@]2(C)[C@@H]([C@H](C)CCCC(C)(C)O)CC[C@@H]12` [25-OH-D3, 25-OH-vitamin D3, reference compound], the B/Bo in data set [2] (Conc. 0.1 ng/ml) stood at 100; in data set [2] (Conc. 1 ng/ml), 92; in data set [2] (Conc. 10 ng/ml), 33; in data set [2] (Conc. 100 ng/ml), 10; in data set [2] (Conc. 1000 ng/ml) it was 7.
`C=C1CC[C@H](O)C/C1=C/C=C1\CCC[C@]2(C)[C@@H]([C@H](C)/C=C/[C@H](C)C(C)(C)O)CC[C@@H]12` [25-OH-vitamin D2] came in with a cross-reaction in data set [1] (125 nmol/l added to serum treated with activated charcoal) of 60%.
Take `C=C1CC[C@H](OCCCNC(=O)CCCCCNC(=O)CCCCC2SCC3NC(=O)NC32)C/C1=C/C=C1\CCC[C@@]2(C)C1CC[C@@H]2C(C)CCCC(C)(C)O` (stereo partly drawn) [Biotin-25OH-D3, 25-Hydroxy vitamin D3-3β-3′[6-N-(biotinyl)hexamido]-amidopropylether]: the B/Bo is 100 in data set [2] (Conc. 0.1 ng/ml); 99 in data set [2] (Conc. 1 ng/ml); 63 in data set [2] (Conc. 10 ng/ml); 15 in data set [2] (Conc. 100 ng/ml); 8 in data set [2] (Conc. 1000 ng/ml). Moreover, the “HPLC analysis, compound intact” value in data set [3] (Sample 1: light excluded at -20EC) and in data set [3] (Sample 2: light excluded at +4-6EC) was “intact” each time. Moreover, the “HPLC analysis, compound still intact” value in data set [3] (Sample 3: light excluded at room temperature, after 100 days) is “more than 78%”. Further, the degradation entry in data set [3] (Sample 4: strong light (window ledge) at room temperature) is given as “degraded after two months”.

Source of the values: US8133694B2, “Functional vitamin D derivatives and method of determining 25-hydroxy- and 1α, 25-dihydroxy vitamin D” (Immundiagnostik AG, priority 1998, dated 2012).
